In a melting point compilation (Tetko et al.; mined from patent text by program, amines drawn as free bases though some values may be those of a salt) one finds melting point data, which are given here for 63 compounds.

Structures are written as SMILES.

Usually melting point stands for the temperature, or range, at which the solid turns liquid. The compound `CN(C)CCOCC1=Nc2cc(Cl)ccc2S(=O)(=O)N1` showed a melting point of 219 to 221 °C.
`CCC1Cn2c(ncc(-c3nnn[nH]3)c2=O)-c2ccccc21` (stereo not drawn) showed a melting point of 254 to 258 °C.
Regarding `FC(F)(F)c1cc(Cl)c(-n2cc(C#CBr)c(C(F)(F)F)n2)c(Cl)c1`, the melting point lay within 92 to 94 °C.
`COC12CC(COS(=O)(=O)c3ccc(C)cc3)CN(C)C1Cc1cn(C(C)(C)C)c3cccc2c13` (stereo not drawn) yielded a melting point of 150 to 152 °C.
`CCOC(=O)c1cnc(OCC)c2c(C)n[nH]c12`: the melting point was determined as 200 °C.
As to `CCc1nc2c(N)nc3ccccc3c2n1CC#Cc1cccc(C(F)(F)F)c1`, the melting point lay within 202 to 204 °C.
`CC1(CF)C=C(C#N)c2cc([N+](=O)[O-])ccc2O1` (stereo not drawn) came in with a melting point of 169 to 171 °C.
Regarding `Cn1ncnc1COc1nn2c(-c3ccccc3)nncc2c1-c1ccccc1`, the melting point came out at 185 °C.
With `Nc1cc(O)nn1-c1c(Cl)cc(Cl)cc1Cl` the figure was 221 to 223 °C; with `Cc1c(NC(=O)CC(C)(C)C)cc2c(c1C)OC(C)(C)C2(O)c1ccccc1` (stereo not drawn), 109 to 111 °C.
`COc1cccc(C(=O)C=Cc2ccc(OC)cc2OC)c1` displayed a melting point of 75.6 to 78.9 °C.
As to `CCC1(CC)Oc2cc(OC)c(C#N)cc2[C@@H](N2CCCC2=O)[C@@H]1O` (relative stereo), the melting point lay within 193 to 195 °C.
Compound `O=C(Nc1nccs1)C1CSc2sccc2C1=O` (stereo not drawn) came in with a melting point of 201 to 203 °C.
As for `Fc1ccc(N2CCN(CCCNc3ccc(-n4ccnc4)cc3)CC2)cc1`, the melting point was 164 to 166 °C.
Compound `CCCCc1nc(C(O)(CC)CC)c(C(=O)OCC)[nH]1` gave a melting point of 63 to 64 °C.
`Cc1nc(-c2ccccc2)nc(-c2cccc([N+](=O)[O-])c2)c1C(=O)NCN1CCN(C)CC1` registered a melting point of 129 to 131 °C.
Under `ON=C(Nc1ccc(C(F)(F)F)cc1)C1=NN(c2ccc(Cl)cc2)C(c2ccc(F)cc2)C1` (stereo not drawn) stands 188 to 191 °C; under `Cn1cc(C(=O)C(Cl)Cl)c(=O)c(-c2cccc(Cl)c2)c1`, 201 to 202 °C.
For `O=C(NCCCCCn1ccnc1)c1ccc(Cl)nc1`, the melting point was in the range of 110 to 112 °C.
Compound `CCOCCc1cc(O)ccc1N` gave a melting point of 102 °C.
Turning to `CC(c1ccc(F)cc1)N1CCC(n2cnc3ccccc3c2=O)CC1` (stereo not drawn), the melting point fell in the range of 179 to 180 °C.
In the case of `O=C(O)c1ccc(NC(=O)c2ccc3c(c2)OCCO3)cc1`, the melting point was 278 to 280 °C.
Consider `N#Cc1cc(CO)nc(C(=O)Nc2cccc(Cl)c2)c1`, for which the melting point came out at 167 °C.
Under `CCCCCCCCCCCCCCCCCCOc1cc(OCCCOc2ccc(O)cc2)cc(C(=O)O)c1` stands 92 to 95 °C.
`COc1ccc(Nc2nc(NC(C)C)nc(Oc3ccccc3C#CC(C)(C)O)n2)cc1Cl` yielded a melting point of 138 to 140 °C.
Under `CC(=O)OC1Oc2ccc(C#N)cc2C1(C)C` (stereo not drawn) stands 138 to 140 °C; under `Cc1ccccc1Cc1n[nH]c2c1c(=O)n(-c1cccc(OC(F)(F)F)c1)c1ncccc21`, 240 to 242 °C.
On to `CCOc1nc2c(nc1C(=O)Nc1nccs1)c(C)nn2CC`, for which the melting point lay within 158 to 159 °C.
Under `Cc1ccsc1-c1ccc(C(C)(N)C(=O)O)cc1` (stereo not drawn) stands greater than 250 °C; under `CCCCn1c(=O)c2c(ncn2S(=O)(=O)c2cccc([N+](=O)[O-])c2)n(CCCC)c1=O`, 178 to 179 °C; under `O=C1CCCc2[nH]c3cc(F)ccc3c21`, 231 to 233 °C.
Under `O=C(CCCCC1CCSS1)n1ccnc1` (stereo not drawn) stands 37 to 39 °C; under `CON(C)S(=O)(=O)c1ccccc1N`, 50 °C.
For the compound `O=C1CCCc2cc(I)ccc21`, the melting point is 77 to 78 °C.
For the compound `CN(C)C=Nc1nc2c(s1)C(=O)C(=CN(C)C)CC2`, the melting point is 185 to 186 °C.
Turning to `CC[C@H]1CN(c2c(F)cc3c(=O)c(C(=O)O)cn(C4CC4)c3c2C)C[C@H]1N`, the melting point lay in the range of 148 to 150 °C.
`CCCCC(CC(=O)Nc1cc(C(N)=O)ccc1C(C)(C)C)c1ccc(OCCCOC)cc1OC` (stereo not drawn) had a melting point of 157 to 162 °C.
With `CC(=O)Nc1ccc(CNc2n[nH]c3ncnc(Nc4cccc(Cl)c4)c23)cc1` the figure was greater than 260 °C; with `O=C(CN1C(=O)c2ccccc2C1=O)c1cc(O)c(O)c([N+](=O)[O-])c1`, 214 to 216 °C; with `CC(=O)ON1C(C)(C)NC(=O)C1(C)C`, 188 to 190 °C.
Compound `N#Cc1cnn(-c2c(Cl)cc(C(F)(F)F)cc2Cl)c1N1CCC1=O` showed a melting point of 162 to 164 °C.
Take `CN1CCc2cc(S(=O)(=O)Nc3cnc4cc(Cl)ccc4n3)ccc21`: the melting point was 189 to 190 °C.
Under `C=CC(CC(O)C(CC(C)C)NC(=O)C(Cc1c[nH]cn1)NC(=O)C(Cc1ccccc1)NC(=O)OC(C)(C)C)C(C)C` (stereo not drawn) stands 82 °C; under `CCOC(=O)c1cn2c(cc(Cl)c3ccc(Cl)cc32)n1`, 229 to 230 °C; under `CC(C)(C)OC(=O)C[C@@H](CC1CCCC1)C(=O)N1C(=O)OC[C@@H]1Cc1ccccc1`, 113 to 119 °C.
With `O=CC=C(c1ccccc1)c1ccccc1`, the melting point fell in the range of 45 to 46.5 °C.
Under `Cn1cc(C(=O)O)c(=O)c2c3cc(N4CCC(O)(c5cccc(C(F)(F)F)c5)CC4)c(F)cc3ncc21` stands 300 °C; under `COc1ccccc1N1CCN(C(=O)CCCN2CC=C(c3c[nH]c4cc(Cl)ccc34)CC2)CC1`, 93 to 95 °C.
In the case of `Cc1ccc(C#N)c2c([N+](=O)[O-])ccc(Cl)c12`, the melting point was 179 to 180 °C.
Under `O=C1CSC(=S)N1c1ccc(Cl)cc1` stands 124 to 126 °C.
With `Cn1nc2nnsc2c1C#N` the figure was 111 to 114 °C; with `CCCc1c(OCCCOc2ccc(C(=O)O)cc2Br)ccc(C(C)=O)c1OC(C)=O`, 125 to 127 °C; with `O=C(O)CCc1ccc2c(c1)CCc1ccc(C(=O)O)cc1S2`, 233 to 235 °C.
`O=C(C=Cc1cccc(NC(=O)C=Cc2ccccc2)c1)NO` registered a melting point of 178 °C.
Turning to `O=C(Cc1ccccc1)c1c(O)c2cccnc2n(-c2ccccc2)c1=O`, the melting point lay in the range of 169 to 170 °C.
For `CSC1C(O)C(CO)OC1n1ccc(NC(=O)c2ccccc2)nc1=O` (stereo not drawn), the melting point fell in the range of 193 to 194 °C.
With `O=C(O)C1CCc2[nH]c3ccc(Cl)cc3c2C1` (stereo not drawn), the melting point was in the range of 181 to 183 °C.
With `Cc1cc(Oc2ccccc2C(F)(F)F)nn1C(=O)Nc1ccccc1`, the melting point fell in the range of 87 to 89 °C.
With `Cc1nc2c(C(=O)NC(C)(C(N)=O)C(C)C)cc(C(=O)O)cc2n1C` (stereo not drawn) the figure was 246 to 248 °C; with `CN(C(=O)Cc1[nH]c(=O)c2ccc(Cl)cc2c1-c1ccccc1)c1cc(C(F)(F)F)cc(C(F)(F)F)c1`, 181 to 182 °C.
The compound `NS(=O)(=O)c1cc2[nH]c(CCc3ccccc3)nc2cc1Cl` displayed a melting point of 226 to 228 °C.
Turning to `CCOc1ccc(CC(NC(C)=O)C(=O)O)cc1OCC` (stereo not drawn), the melting point is 149 to 151 °C.
In turn, `COCOc1ccccc1-c1cc(-c2ccc(OC)c(C(=O)O)c2)c(C#N)c(NC(=O)c2cccs2)n1` registered a melting point of 187 to 189 °C.
